Read-outs that look alike come from different tables or passages of the source.
What was measured:
[1] = system: α-synuclein oligomers (α-synO) binding to neuronal synapses; test: Displacement of alpha-synuclein oligomers: α-synO binding to neuronal synapses (ASYO5 immunostaining); type: cell-based, Rat; settings: 24 hours; for α-synO binding to neuronal synapses: synthetic α-synO, FIG. 1D/1E
Experimental: FIG. 1A is a representative image of a neuron culture with a seeding control (7.1 nM) treated with a vehicle for 24 hours. Cultures were immunostained for the neurite marker microtubule associated protein 2 (MAP2; green) and for α-synuclein oligomers using an alpha-synuclein, oligomer-specific antibody (ASYO5 antibody, Agrisera; red). No α-synOs are present in the vehicle treated cultures.
FIG. 1B is a representative image of a neuron culture treated with synthetic α-synuclein oligomers (1 μM) for 24 hours and immunostained for the neurite marker microtubule associated protein 2 (MAP2; green) and for α-synuclein oligomers using an alpha-synuclein, oligomer-specific antibody (ASYO5 antibody, Agrisera; red).
FIG. 1C is a representative image of a neuron culture treated with synthetic α-synuclein oligomers (1 μM) and Compound A:
(10 μM) for 24 hours and immunostained for the neurite marker microtubule associated protein 2 (MAP2; green) and for α-synuclein oligomers using an alpha-synuclein, oligomer-specific antibody (ASYO5 antibody, Agrisera; red).
FIG. 1D is a graphical representation of binding affinity of α-synuclein oligomers (α-SynO) to neuronal synapses after treatment with vehicle (α-SynO) or treatment with Compound B
FIG. 1E is a graphical representation of binding affinity of α-synuclein oligomers (α-SynO) to neuronal synapses after treatment with vehicle (α-SynO) or treatment with Compound A
(§1) Rat neuronal cultures were treated with vehicle (an a seeding control (7.1 nM) without α-synuclein oligomers (α-synOs)) or synthetic α-synOs for 24 hours. Cultures were immunostained for the neurite marker microtubule associated protein 2 (MAP2; green) and for α-synOs using an alpha-synuclein, oligomer-specific antibody (ASYO5 antibody, Agrisera; red).

[2] = system: α-synuclein; test: Animal models of Parkinson's disease (AAV1/2 A53T-α-synuclein overexpression; intrastriatal α-synuclein preformed fibrils); type: in vivo, rat; settings: both models of Parkinson's disease
Text: Examples include models of overexpression of α-synuclein or models that mimic the propagation of α-synuclein throughout the brain. One such overexpression model is the rat AAV1/2 A53T-α-synuclein model (Koprich, J. B., Johnston, T. H., Huot, P., Reyes, M. G., Espinosa, M., Brotchie, J. M., “Progressive neurodegeneration or endogenous compensation in an animal model of Parkinson's disease produced by decreasing doses of alpha-synuclein,” PLoS One, 6:1-9 (2011), which is hereby incorporated herein by reference in its entirety), where induction of α-synuclein overexpression is accompanied by loss of nigral dopaminergic cells, lower dopamine transporter levels, lower dopamine levels and motor deficits. Another example uses intrastriatal injection of preformed fibrils of α-synuclein to model propagation of Parkinson's pathology throughout the brain (Duffy, M. F., Collier, T. J., Patterson, J. R., Kemp, C. J., Fischer D. L., Stoll, A. C., Sortwell, C. E., “Quality over quantity: Advantages of using alpha-synuclein preformed fibrils triggered synucleinopathy to model idiopathic Parkinson's disease,” Front Neurosci, 12:1-10 (2018) and Patterson, J. R., Duffy, M. F., Kemp, C. J., Howe, J. W., Collier, T. J., Stoll, A. C., Miller, K. M., Patel, P., Levine, N., Moore, D. J., Luk, K. C., Fleming, S. M., Kanaan, N. M, Paumier, K. L., El Agnaf, O. M. A., Sortwell, C. […]

[3] = system: α-synO-induced vesicle trafficking deficits; test: Vesicle trafficking in neuronal cultures treated with α-synuclein oligomers; type: cell-based, Rat; settings: α-synOs 1.0 μM final concentration; for Emax / EC50: Rattus norvegicus; for Emax: FIG. 1F/1G, read-out: Emax, amelioration of α-synO vesicle trafficking deficit; for EC50: read-out: EC50, amelioration of α-synO vesicle trafficking deficit
Experimental: FIG. 1F is a graphical representation of vesicular trafficking in untreated control cultures, cultures treated with α-synuclein oligomers (α-SynO) for 24 hours, or cultures treated with α-synuclein oligomers (α-SynO) and Compound B
FIG. 1G is a graphical representation of vesicular trafficking in untreated control cultures, cultures treated with α-synuclein oligomers (α-SynO) for 24 hours, or cultures treated with α-synuclein oligomers (α-SynO) and Compound A
as §1
Untreated vehicle control cultures without any α-SynO addition lack α-synO immunoreactivity (FIG. 1A). […] FIGS. 1D, 1E, 1F, 1G: * p<0.05, **p<0.01, […], ****p<0.001, one-way ANOVA for drug concentration vs control with Dunnett's post-test.

SMILES | punctate binding of α-synOs along neurites ([1]; 1 μM α-synO, compound 10 μM, FIG. 1B/1C) | α-synO binding to neuronal synapses [1] | deficits characteristic of Parkinson's disease and their propagation throughout the brain [2] | Emax [3] | EC50 ([3]; FIG. 1G) | rescue of α-synO-induced trafficking deficits [3] | EC50 ([3]; FIG. 1F)
CC(C)(C)Oc1cc(CCC(C)(C)N2Cc3ccc(S(C)(=O)=O)cc3C2)ccc1O [Compound A] | punctate binding of α-synOs along neurites in the absence (FIG. 1B) but not presence | block α-synO binding to neuronal synapses in a concentration-dependent manner | reduces some or all deficits that are characteristic of Parkinson's disease | 87% | 650 nM | rescue α-synO-induced trafficking deficits in a concentration-dependent manner | 
CC(C)=C[C@@H](CC(C)(C)c1ccc(C(F)(F)F)cc1)N1CCC(C2CCOCC2)CC1 [Compound B] |  | block α-synO binding to neuronal synapses in a concentration-dependent manner | reduces some or all deficits that are characteristic of Parkinson's disease | 92% |  | rescue α-synO-induced trafficking deficits in a concentration-dependent manner | 310 nM

From patent US20240165077A1, “COMPOSITIONS AND METHODS FOR TREATING NEUROLOGIC DISEASES” (Cognition Therapeutics, Inc., priority 2021, published 2024)
